Assays:
[1] = Single dose study of dose proportionality of IR OXN tablets in healthy subjects (Example 2); assay type: in vivo, human; settings: after IR OXN tablets, particularly with the lower doses
Excerpt: The study was an open-label, single-dose, 4-treatment, 4-period, randomised crossover study in healthy male and female subjects conducted at a single study centre. […] Subjects received each of the four treatments according to a random allocation schedule (RAS), with at least a 7-day washout period between each dosing.
Subjects attended a screening visit within 21 days of the first dosing day of Study Period 1. Eligible subjects then checked into the study unit on the day before dosing in each study period. Subjects were administered the appropriate study drug in a fasted state the following morning. […]
The following pharmacokinetic parameters were calculated from the plasma concentrations of oxycodone, noroxycodone, oxymorphone, noroxymorphone, naloxone, 6β-naloxol, naloxone-3-glucuronide and 6β-naloxol-3-glucuronide: • Area under the plasma concentration-time curve measured from the time of dosing to the last measurable concentration (AUCt) • Area under the plasma concentration-time curve measured from the time of dosing and extrapolated to infinity (AUCinf) • Maximum observed plasma concentration (Cmax) • Time of maximum observed plasma concentration (tmax) • Terminal phase rate constant (LambdaZ) • Terminal phase half-life (t1/2Z) […]
AUCt values were calculated using the linear trapezoidal method. […]

[2] = Single dose bioavailability study of IR OXN 20/10 vs oxycodone IR capsule 20 mg and OXN PR 20/10 (Targin) in healthy subjects (Example 3); assay type: in vivo, human; settings: oral, from the study treatments
Description: The study was an open-label, single-dose, 3-treatment, 3-period, randomised crossover. Each subject received single oral doses of IR OXN tablet 20/10 mg, oxycodone IR capsule 20 mg and OXN PR tablet 20/10 mg (Targin®). Subjects received each of the three treatments according to a random allocation schedule (RAS), with at least a 7-day washout period between each dosing.
Subjects attended a screening visit within 21 days of the first dosing day of Study Period 1. Eligible subjects then checked into the study unit on the day before dosing in each study period. Subjects were administered the appropriate study drug in a fasted state the following morning.
Pharmacokinetic blood samples were taken for 36 hours after administration of study drug in each study period, and subjects were discharged after the 36-hour blood sample.
IR OXN tablet 20/10 mg. The treatment was administered orally, in a fasted state, as follows: […]
Log-transformed data for the analytes oxycodone, noroxycodone, oxymorphone, noroxymorphone, naloxone, 6β-naloxol, naloxone-3-glucuronide and 6β-naloxol-3-glucuronide and the pharmacokinetic parameters AUCt, AUCINF and Cmax were analysed using a mixed effect linear model 18, with fixed terms for treatment and period and a random effect for subject.
Treatment ratios/differences and their associated 90% confidence intervals were calculated from the least square means.

## C=CCN1CC[C@]23c4c5ccc(O)c4O[C@H]2C(=O)CC[C@@]3(O)[C@H]1C5 [Naloxone, naloxone]
[1]
  plasma concentrations of naloxone: extremely low
[2]
  bioavailability of naloxone: very low

From patent US9820983B2, “Immediate release pharmaceutical compositions comprising oxycodone and naloxone” (Purdue Pharma L.P., priority 2009, dated 2017)
